The structures appear in SMILES notation.

One assay concerns MiaPaCa2 cell. To be noted: pretreatment, MiaPaCa2, WST-1, 72 hrs.
A further assay concerns WT mice. Kind of assay: Renal ischemia and reperfusion in WT mice with renalase peptide RP-H220. It counts as in vivo, mouse. The note with it: 30 minutes of renal ischemia and reperfusion. Here is the method:
FIG. 3 is a chart showing that ERK or AKT inhibition abrogates protective effect of renalase peptide: WT mice subjected to sham surgery or to 30 minutes of renal ischemia and reperfusion; RP-[…] or vehicle (saline) injected 10 minutes before renal ischemia. ERK inhibitor PD98059 or the PI3K/AKT inhibitor wortmannin abrogated RP-[…]'s protective effect.

Procedure for MiaPaCa2 cell: FIG. 24B is a chart depicting cell viability relative to control: MiaPaCa2 cell serum starved and then treated with BSA (30 μg/ml) or rRNLS (30 μg/ml), with and without pretreatment with MEK1 inhibitor U0126, and cell viability measured 72 hrs later using the WST-1 assay; n=6, * indicates p<0.005.
For some studies, cell viability was determined using the WST-1 reagent (Roche Diagnostics, Indianapolis, Ind., USA) as previously described (Wang et al., 2014 Journal of the American Society of Nephrology. DOI:10.1681/asn.2013060665).

In the case of `N#CC(=C(/N)Sc1ccccc1N)/C(C#N)=C(\N)Sc1ccccc1N` [U0126], in the assay with MiaPaCa2 cell, the “effect on rRNLS' protective effect” value is on record as “abrogated rRNLS' protective effect”. For the compound `COc1cccc(-c2cc(=O)c3ccccc3o2)c1N` [PD98059], the “effect on RP-H220's protective effect” value in the assay with WT mice is “abrogated RP-H220's protective effect”.

Values taken from patent US11370846B2, “Compositions and methods to regulate Renalase in the treatment of cancer” (Yale University, priority 2014, dated 2022).
